This passage reports T/C results from PubChem BioAssay AID210 (DTP/NCI, 2004).

Each structure is given as a SMILES string. Several values for one entry are separate records, joined by “and”; a condition that tells them apart may be missing. Identical values can stand only once. Inconclusive results and toxic doses are left out.

The test system of the assay is CD2F1 mice, ip Colon 26 adenocarcinoma, median survival T/C. Briefly: NCI In Vivo Anticancer Drug Screen. Data for tumor model Colon 26 Adenocarcinoma (intraperitoneal) in CD2F1 (CDF1) mice. The conditions noted are these: endpoint: median survival time, higher = longer survival. As for the experimental part:
The antitumor activity of compounds was measured in mice bearing transplantable tumors. Survival or tumor size were measured and the results are expressed as the measurement made in the treated group (T) divided by the measurement made in the vehicle treated control group (C). The tumor model used in this assay is Colon 26 Adenocarcinoma (intraperitoneal) in CD2F1 (CDF1) mice

[1] abbreviates: dose: 12.5 mg/kg/injection, schedule: Q04DX002 (ip), vehicle: Klucel (hydroxypropylcellulose) (HPC).

With `CC(C)CCCCCCCCCCCCC(=O)NCC(=O)NC1C(O)C(O)C(Nc2ncnc3nc[nH]c23)OC1C(O)CO` (stereo not given), the T/C was 91 % of control (dose: 0.5 mg/kg/injection, schedule: Q04DX003 (ip), vehicle: Klucel (hydroxypropylcellulose) (HPC)); 97 % of control (dose: 1.0 mg/kg/injection, schedule: Q04DX003 (ip), vehicle: Klucel (hydroxypropylcellulose) (HPC)); 101 % of control (dose: 2.0 mg/kg/injection, schedule: Q04DX003 (ip), vehicle: Klucel (hydroxypropylcellulose) (HPC)); 103 % of control (dose: 4.0 mg/kg/injection, schedule: Q04DX003 (ip), vehicle: Klucel (hydroxypropylcellulose) (HPC)).

Turning to `COC(OC(CO)C(O)S(=O)(=O)O)C(O)S(=O)(=O)O` (stereo not given), the T/C reads like this: (dose: 12.5 mg/kg/injection, schedule: Q04DX003 (ip), vehicle: saline) 97 % of control; (dose: 25.0 mg/kg/injection, schedule: Q04DX003 (ip), vehicle: saline) 102 % of control; (dose: 50.0 mg/kg/injection, schedule: Q04DX003 (ip), vehicle: saline) 102 % of control; (dose: 100.0 mg/kg/injection, schedule: Q04DX003 (ip), vehicle: saline) 108 % of control; (dose: 200.0 mg/kg/injection, schedule: Q04DX003 (ip), vehicle: saline) 109 % of control; (dose: 400.0 mg/kg/injection, schedule: Q04DX003 (ip), vehicle: saline) 100 % of control.

On to `COc1cc(NS(C)(=O)=O)ccc1Nc1c2ccccc2nc2ccccc12`, for which the T/C is 111 % of control (dose: 0.5 mg/kg/injection, schedule: Q04DX002 (ip), vehicle: other); 98 % of control (dose: 0.5 mg/kg/injection, schedule: Q04DX003 (ip), vehicle: other); 119 % of control (dose: 1.0 mg/kg/injection, schedule: Q04DX002 (ip), vehicle: other); 112 % of control (dose: 1.0 mg/kg/injection, schedule: Q04DX003 (ip), vehicle: other); 117 % of control (dose: 2.0 mg/kg/injection, schedule: Q04DX003 (ip), vehicle: other); 151 % of control (dose: 4.0 mg/kg/injection, schedule: Q04DX002 (ip), vehicle: other). Also, the T/C by setting is: (dose: 8.0 mg/kg/injection, schedule: Q04DX002 (ip), vehicle: other) 185 % of control; (dose: 8.0 mg/kg/injection, schedule: Q04DX003 (ip), vehicle: other) 156 % of control; (dose: 16.0 mg/kg/injection, schedule: Q04DX002 (ip), vehicle: other) 240 % of control; (dose: 16.0 mg/kg/injection, schedule: Q04DX003 (ip), vehicle: other) 170 % of control.

In the case of `CC1OC(=O)C(C(C)C)NC(=O)C(C(C)C)OC(=O)C(C(C)C)NC(=O)C(C)OC(=O)C(C(C)C)NC(=O)C(C(C)C)OC(=O)C(C(C)C)NC(=O)C(C)OC(=O)C(C(C)C)NC(=O)C(C(C)C)OC(=O)C(C(C)C)NC1=O` (stereo not given), the T/C reads like this: (dose: 0.75 mg/kg/injection, schedule: Q04DX003 (ip), vehicle: Klucel (hydroxypropylcellulose) (HPC)) 181 % of control; (dose: 1.5 mg/kg/injection, schedule: Q04DX003 (ip), vehicle: Klucel (hydroxypropylcellulose) (HPC)) 186 % of control; (dose: 3.0 mg/kg/injection, schedule: Q04DX003 (ip), vehicle: Klucel (hydroxypropylcellulose) (HPC)) 200 % of control; (dose: 6.0 mg/kg/injection, schedule: Q04DX003 (ip), vehicle: Klucel (hydroxypropylcellulose) (HPC)) 193 % of control; (dose: 12.0 mg/kg/injection, schedule: Q04DX003 (ip), vehicle: Klucel (hydroxypropylcellulose) (HPC)) 165 % of control.

On to `NC(C/[N+]([O-])=N/O)C(=O)O` (stereo not given), for which the T/C was 99 % of control (dose: 8.78 mg/kg/injection, schedule: Q01DX010 (ip), vehicle: alkali diluted with saline); 100 % of control (dose: 13.2 mg/kg/injection, schedule: Q01DX010 (ip), vehicle: alkali diluted with saline); 96 % of control (dose: 19.8 mg/kg/injection, schedule: Q01DX010 (ip), vehicle: alkali diluted with saline); 113 % of control (dose: 29.6 mg/kg/injection, schedule: Q01DX010 (ip), vehicle: alkali diluted with saline); 104 % of control (dose: 44.4 mg/kg/injection, schedule: Q01DX010 (ip), vehicle: alkali diluted with saline); 95 % of control (dose: 66.7 mg/kg/injection, schedule: Q01DX010 (ip), vehicle: alkali diluted with saline).

Regarding `CC(=O)OCC(=O)[C@@]12OC(C)(C)O[C@@H]1C[C@H]1[C@@H]3CC(C=O)=C4C=C(OCCCl)CC[C@]4(C)[C@@]3(F)[C@@H](O)C[C@@]12C`, the T/C (dose: 0.39 mg/kg/injection, schedule: Q04DX002 (ip), vehicle: Klucel (hydroxypropylcellulose) (HPC)) is 94 % of control; the T/C (dose: 0.78 mg/kg/injection, schedule: Q04DX002 (ip), vehicle: Klucel (hydroxypropylcellulose) (HPC)) was 89 % of control; the T/C (dose: 1.56 mg/kg/injection, schedule: Q04DX002 (ip), vehicle: Klucel (hydroxypropylcellulose) (HPC)) was 93 % of control; the T/C (dose: 3.13 mg/kg/injection, schedule: Q04DX002 (ip), vehicle: Klucel (hydroxypropylcellulose) (HPC)) is 95 % of control; the T/C (dose: 6.25 mg/kg/injection, schedule: Q04DX002 (ip), vehicle: Klucel (hydroxypropylcellulose) (HPC)) was 91 % of control; the T/C under setting [1] is 88 % of control.

As for `Cc1c[nH]c(=O)[nH]c1=O`, the T/C is 97 % of control (dose: 16.0 mg/kg/injection, schedule: Q04DX002 (ip), vehicle: Klucel (hydroxypropylcellulose) (HPC)); 101 % of control (dose: 32.0 mg/kg/injection, schedule: Q04DX002 (ip), vehicle: Klucel (hydroxypropylcellulose) (HPC)); 101 % of control and 94 % of control and 96 % of control (dose: 64.0 mg/kg/injection, schedule: Q04DX002 (ip), vehicle: Klucel (hydroxypropylcellulose) (HPC)); 101 % of control and 88 % of control and 95 % of control (dose: 128.0 mg/kg/injection, schedule: Q04DX002 (ip), vehicle: Klucel (hydroxypropylcellulose) (HPC)); 110 % of control and 92 % of control and 97 % of control (dose: 256.0 mg/kg/injection, schedule: Q04DX002 (ip), vehicle: Klucel (hydroxypropylcellulose) (HPC)); 91 % of control (dose: 512.0 mg/kg/injection, schedule: Q04DX002 (ip), vehicle: Klucel (hydroxypropylcellulose) (HPC)). The T/C (dose: 1024.0 mg/kg/injection, schedule: Q04DX002 (ip), vehicle: Klucel (hydroxypropylcellulose) (HPC)) is 86 % of control.

In the case of `O=S(=O)(O)O`, the T/C reads like this: (dose: 30.0 mg/kg/injection, schedule: Q01DX009 (ip), vehicle: saline with Tween-80) 100 % of control; (dose: 44.0 mg/kg/injection, schedule: Q01DX009 (ip), vehicle: saline with Tween-80) 95 % of control; (dose: 67.0 mg/kg/injection, schedule: Q01DX009 (ip), vehicle: saline with Tween-80) 101 % of control.

Regarding `c1cc[c]([Sn][c]2ccccc2)cc1`, the T/C by setting is: (dose: 0.62 mg/kg/injection, schedule: Q04DX003 (ip), vehicle: saline with Tween-80) 97 % of control; (dose: 0.62 mg/kg/injection, schedule: Q04DX003 (ip), vehicle: saline) 105 % of control; (dose: 1.25 mg/kg/injection, schedule: Q04DX003 (ip), vehicle: saline with Tween-80) 92 % of control; (dose: 1.25 mg/kg/injection, schedule: Q04DX003 (ip), vehicle: saline) 112 % of control; (dose: 2.5 mg/kg/injection, schedule: Q04DX003 (ip), vehicle: saline with Tween-80) 100 % of control; (dose: 2.5 mg/kg/injection, schedule: Q04DX003 (ip), vehicle: saline) 107 % of control. Also, the T/C (dose: 5.0 mg/kg/injection, schedule: Q04DX003 (ip), vehicle: saline with Tween-80) was 108 % of control; the T/C (dose: 5.0 mg/kg/injection, schedule: Q04DX003 (ip), vehicle: saline) is 117 % of control; the T/C (dose: 10.0 mg/kg/injection, schedule: Q04DX003 (ip), vehicle: saline) was 86 % of control.

In the case of `CC1CC2OC2/C=C\C=C\C(=O)Cc2c(Cl)c(O)cc(O)c2C(=O)O1` (stereo not given), the T/C was 94 % of control under setting [1]; 92 % of control (dose: 25.0 mg/kg/injection, schedule: Q04DX002 (ip), vehicle: Klucel (hydroxypropylcellulose) (HPC)); 99 % of control (dose: 50.0 mg/kg/injection, schedule: Q04DX002 (ip), vehicle: Klucel (hydroxypropylcellulose) (HPC)); 99 % of control (dose: 100.0 mg/kg/injection, schedule: Q04DX002 (ip), vehicle: Klucel (hydroxypropylcellulose) (HPC)); 95 % of control (dose: 200.0 mg/kg/injection, schedule: Q04DX002 (ip), vehicle: Klucel (hydroxypropylcellulose) (HPC)).

Turning to `CC1(CO)C(O)CCC2(C)C1C(O)CC1CC3CC12CCC3(O)CO` (stereo not given), the T/C reads like this: (dose: 12.5 mg/kg/injection, schedule: Q04DX002 (ip), vehicle: distilled water + Tween-80) 120 % of control; (dose: 50.0 mg/kg/injection, schedule: Q04DX002 (ip), vehicle: distilled water + Tween-80) 98 % of control; (dose: 100.0 mg/kg/injection, schedule: Q04DX002 (ip), vehicle: distilled water + Tween-80) 110 % of control; (dose: 200.0 mg/kg/injection, schedule: Q04DX002 (ip), vehicle: distilled water + Tween-80) 103 % of control.
